Assay results as given in patent US20110166119A1 (Glade Organics Private Limited, priority 2008, published 2011).
Like-named read-outs stand apart in the source and are kept apart here.

Columns and labels:
[1] = test system: Methicillin Resistant Staphylococcus aureus (MRSA); test: Checkerboard MIC, MRSA; type: cell-based; conditions: for MIC: Staphylococcus aureus, MRSA, read-out: MIC when taken individually
Method: (§1) The synergistic outcome of the combination was recorded as a concave curve.
(§2) The checkerboard array was performed in order to find the MIC's of selected antibacterial agents against the strains of Pseudomonas aeruginosa, Acinetobacter baumannii, Klebsiella pneumoniae and MRSA (Methicillin Resistant Staphylococcus aureus).
(§3) • 1. A total of 50 μl of Mueller-Hinton broth was distributed into each well of the micro dilution plates. • 2. The first antibiotic (A) of the combination was serially twofold diluted along the Y-axis, while the second antibiotic (B) was diluted along the X-axis. • 3. An inoculum equal to a 0.5 McFarland turbidity standard was prepared from each culture in sterile saline. • 4. Each micro titer well was inoculated with 100 μl of a bacterial inoculum and the plate was loaded on ELISA plate reader (37° C. for 24 hrs). Formula for ΣFIC (Fractional inhibitory concentration): […]
(§4) Where FIC A is the MIC of drug A in the combination/MIC of drug A alone,
(§5) FIC B is the MIC of drug B in the combination/MIC of drug B alone.
(§6) The combination is considered synergistic when the ΣFIC is ≦0.5, indifferent when the ΣFIC is >0.5 to <2, and antagonistic when the ΣFIC is ≧2.

[2] = test system: Acinetobacter baumanii; test: Checkerboard MIC, Acinetobacter baumanii; type: cell-based, Acinetobacter baumannii; conditions: for MIC: Acinetobacter baumannii, single drug, read-out: MIC when taken individually
Method: as §1, §2, §3, §4, §5, §6

[3] = test system: Klebsiella pneumoniae (VIM producing); test: Checkerboard MIC, Klebsiella pneumoniae; type: cell-based; conditions: for MIC: Klebsiella pneumoniae, single drug, read-out: MIC when taken individually
Method: as §2, §3, §4, §5, §6

[4] = test system: Pseudomonas aeruginosa (PA1 - ESBL producing); test: Checkerboard MIC, Pseudomonas aeruginosa PA1; type: cell-based; conditions: for MIC in combination: Ertapenem + Aztreonam combination, Table 1; for MIC: Pseudomonas aeruginosa, PA1, read-out: MIC when taken individually
Method: as §1, §2, §3, §4, §5, §6

[5] = test system: Pseudomonas aeruginosa ATCC 27853; test: Checkerboard MIC, Pseudomonas aeruginosa ATCC 27853; type: cell-based; conditions: for MIC in combination: Meropenem + Aztreonam combination, Table 6; for MIC: Pseudomonas aeruginosa, ATCC27853, read-out: MIC when taken individually
Method: as §2, §3, §4, §5, §6

[6] = Ertapenem 4.88 + Aztreonam 39.06
[7] = Ertapenem 9.76 + Aztreonam 19.53
[8] = Ertapenem 19.53 + Aztreonam 9.76
[9] = Ertapenem + Aztreonam combination, Table 4
[10] = Ertapenem/Aztreonam checkerboard, Table 3
[11] = Ertapenem 0.61 + Aztreonam 312.5
[12] = Ertapenem 1.22 + Aztreonam 156.25
[13] = Ertapenem 2.44 + Aztreonam 78.12
[14] = Ertapenem + Aztreonam combination, Table 3
[15] = Ertapenem 1.22 + Aztreonam 2.44
[16] = Ertapenem 2.44 + Aztreonam 4.88
[17] = Ertapenem 4.88 + Aztreonam 9.76
[18] = Ertapenem + Aztreonam combination, Table 2
[19] = Meropenem 0.0488 + Aztreonam 19.53
[20] = Meropenem 0.097 + Aztreonam 9.76
[21] = Meropenem 6.1 + Aztreonam 19.53
[22] = Meropenem 12.2 + Aztreonam 9.76
[23] = Meropenem + Aztreonam combination, Table 7
[24] = Meropenem/Aztreonam checkerboard, Table 8
[25] = Meropenem 1.22 + Aztreonam 9.76
[26] = Meropenem 2.44 + Aztreonam 4.88
[27] = Meropenem + Aztreonam combination, Table 8
[28] = Meropenem/Aztreonam checkerboard, Table 5
[29] = Meropenem 0.097 + Aztreonam 19.53
[30] = Meropenem 0.195 + Aztreonam 9.76
[31] = Meropenem + Aztreonam combination, Table 5

C[C@@H](O)[C@H]1C(=O)N2C(C(=O)O)=C(S[C@@H]3CN[C@H](C(=O)Nc4cccc(C(=O)O)c4)C3)[C@H](C)[C@H]12 [Ertapenem]
FIC of Ertapenem (x-co-ordinate) [1, 6]: 0.5
FIC of Ertapenem (x-co-ordinate) [1, 7]: 1
FIC of Ertapenem (x-co-ordinate) [1, 8]: 2
MIC in combination [1, 9]: 4.88 µg/mL
MIC [1]: 9.76 µg/mL
MIC [2, 10]: 9.76 µg/mL
FIC of Ertapenem (x-co-ordinate) [2, 11]: (0.0625,
FIC of Ertapenem (x-co-ordinate) [2, 12]: 0.125
FIC of Ertapenem (x-co-ordinate) [2, 13]: 0.25
MIC in combination [2, 14]: 0.61 µg/mL
FIC of Ertapenem (x-co-ordinate) [3, 15]: 0.25
FIC of Ertapenem (x-co-ordinate) [3, 16]: 0.5
FIC of Ertapenem (x-co-ordinate) [3, 17]: (1.0,
FIC of Ertapenem (x-co-ordinate) [3, 7]: (2.0,
MIC in combination [3, 18]: 4.88 µg/mL
MIC ([3]; Ertapenem/Aztreonam checkerboard, Table 2): 1.22 µg/mL
FIC of Ertapenem (x-co-ordinate) [4, 6]: 0.5
FIC of Ertapenem (x-co-ordinate) [4, 7]: 1.0
FIC of Ertapenem (x-co-ordinate) [4, 8]: 2.0
MIC in combination [4]: 4.88 µg/mL
MIC [4]: 9.76 µg/mL

C[C@@H](O)[C@H]1C(=O)N2C(C(=O)O)=C(S[C@@H]3CN[C@H](C(=O)N(C)C)C3)[C@H](C)[C@H]12 [Meropenem]
FIC of Meropenem (x-co-ordinate) [5, 19]: 0.25
FIC of Meropenem (x-co-ordinate) [5, 20]: 0.497
FIC of Meropenem (x-co-ordinate) ([5]; Meropenem 0.195 + Aztreonam 4.88): 1.0
MIC in combination [5]: 0.0488 µg/mL
MIC [5]: 0.195 µg/mL
FIC of Meropenem (x-co-ordinate) [1, 21]: 0.5
FIC of Meropenem (x-co-ordinate) [1, 22]: 1
MIC in combination [1, 23]: 6.1 µg/mL
MIC [1]: 12.2 µg/mL
MIC [2, 24]: 19.5 µg/mL
FIC of Meropenem (x-co-ordinate) [2, 25]: 0.0625
FIC of Meropenem (x-co-ordinate) [2, 26]: 0.125
MIC in combination [2, 27]: 1.22 µg/mL
MIC [3, 28]: 0.781 µg/mL
FIC of Meropenem (x-co-ordinate) [3, 29]: 0.124
FIC of Meropenem (x-co-ordinate) [3, 30]: 0.2496
MIC in combination [3, 31]: 0.097 µg/mL

C[C@H]1[C@H](NC(=O)/C(=N\OC(C)(C)C(=O)O)c2csc(N)n2)C(=O)N1S(=O)(=O)O [Aztreonam]
FIC of Aztreonam (y-co-ordinate) [5, 19]: 0.5
FIC of Aztreonam (y-co-ordinate) [5, 20]: 0.25
MIC in combination [5]: 4.88 µg/mL
MIC [5]: 39.1 µg/mL
FIC of Aztreonam (y-co-ordinate) [1, 6]: 0.0078
FIC of Aztreonam (y-co-ordinate) [1, 7]: 0.0039
FIC of Aztreonam (y-co-ordinate) [1, 8]: 0.001952
MIC in combination [1, 9]: 9.76 µg/mL
FIC of Aztreonam (y-co-ordinate) [1, 21]: 0.039
FIC of Aztreonam (y-co-ordinate) [1, 22]: 0.001952
MIC in combination [1, 23]: 19.53 µg/mL
MIC [1]: 5000 µg/mL
MIC when taken individually ([1]; single drug, Ertapenem/Aztreonam checkerboard, Table 4): 5000 µg/mL
MIC [2, 10]: 10000 µg/mL
MIC [2, 24]: 5000 µg/mL
FIC of Aztreonam (y-co-ordinate) [2, 11]: 0.0313)
FIC of Aztreonam (y-co-ordinate) [2, 12]: 0.0156
FIC of Aztreonam (y-co-ordinate) [2, 13]: 0.0078
MIC in combination [2, 14]: 78.12 µg/mL
FIC of Aztreonam (y-co-ordinate) [2, 25]: 0.0039
FIC of Aztreonam (y-co-ordinate) [2, 26]: 0.00195
MIC in combination [2, 27]: 4.88 µg/mL
FIC of Aztreonam (y-co-ordinate) [3, 15]: 0.00195
FIC of Aztreonam (y-co-ordinate) [3, 16]: 0.0039
FIC of Aztreonam (y-co-ordinate) [3, 17]: 0.0078)
FIC of Aztreonam (y-co-ordinate) [3, 7]: 0.016)
MIC in combination [3, 18]: 1.22 µg/mL
MIC [3, 28]: 1200 µg/mL
FIC of Aztreonam (y-coordinate) [3, 29]: 0.016
FIC of Aztreonam (y-coordinate) [3, 30]: 0.078
MIC in combination [3, 31]: 9.76 µg/mL
FIC of Aztreonam (y-co-ordinate) [4, 6]: 1.0
FIC of Aztreonam (y-co-ordinate) [4, 7]: 0.5
FIC of Aztreonam (y-co-ordinate) [4, 8]: 0.249
MIC in combination [4]: 9.76 µg/mL
MIC [4]: 39.1 µg/mL
